Laboratory results as given in patent EP0880540B1, “17-BETA-CYCLOPROPYL(AMINO/OXY) 4-AZA STEROIDS AS ACTIVE INHIBITORS OF TESTOSTERONE 5-ALPHA-REDUCTASE AND C17-20-LYASE” (Aventis Pharmaceuticals Inc., priority 1996, dated 1997).

Experiments:
[1] = molecular target: T1, cynomolgus monkey C17,20 lyase (Macaca fascicularis, UniProt Q2XVA1); experiment: In vitro C17,20 lyase assay, testicular microsomes; format: biochemical; conditions: mean of duplicates
T1 construct: microsomal preparations of the enzyme from testicular tissue; from tissue; host or cells: cynomolgus monkey testes, microsomes
T1 sequence (Q2XVA1 1-508): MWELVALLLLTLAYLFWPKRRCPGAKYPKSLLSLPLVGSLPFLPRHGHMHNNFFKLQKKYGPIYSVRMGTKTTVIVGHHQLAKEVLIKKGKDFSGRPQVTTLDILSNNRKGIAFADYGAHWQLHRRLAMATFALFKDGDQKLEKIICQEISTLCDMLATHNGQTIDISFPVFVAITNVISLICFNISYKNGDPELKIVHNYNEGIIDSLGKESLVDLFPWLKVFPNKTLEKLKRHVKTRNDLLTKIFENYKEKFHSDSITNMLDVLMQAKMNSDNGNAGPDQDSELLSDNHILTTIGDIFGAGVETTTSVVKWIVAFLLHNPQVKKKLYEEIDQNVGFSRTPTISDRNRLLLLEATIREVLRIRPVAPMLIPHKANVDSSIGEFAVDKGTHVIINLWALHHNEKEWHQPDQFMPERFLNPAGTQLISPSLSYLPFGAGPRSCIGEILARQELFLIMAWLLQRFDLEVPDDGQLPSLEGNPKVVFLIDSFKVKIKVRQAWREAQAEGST
Method: In vitro C17,20 lyase assays: Compounds were tested for inhibition of cynomolgus monkey C17,20 lyase in vitro using microsomal preparations of the enzyme from testicular tissue. Testes were removed from anesthetized animals and flash frozen in liquid nitrogen. Microsomes were isolated as described in Schatzman et al., Anal. Biochem. 175, 219-226 (1988). The compound to be tested was dissolved in dimethyl sulfoxide and diluted in 0.05 M potassium phosphate buffer, pH 7.4, to give the desired concentrations of test compound, in an amount which contributed 0.1% v/v DMSO to the total assay volume. Assays contained 0.05 M potassium phosphate buffer, pH 7.4, an NADPH regenerating system (1 mM NADPH, 5 mM glucose-6-phosphate, 1 IU/mL glucose-6-phosphate dehydrogenase), test compound, substrate and microsomal protein in a total volume of 0.2 mL. Control assays contained all components, including dimethyl sulfoxide, but not test ccmpound. All assays were performed in duplicate. The test compound was incubated with 20 to 62 µg/mL microsomal protein, buffer, and the NADPH regenerating system described above at 34°C for 0 or 40 minutes. Aliquots of 180 µL were then removed and assayed for enzyme activity by addition to 7-[^3H]-17α-hydroxypregnenolone (11.2 mCi/mmole; 0.2 µCi per assay) plus unlabeled 17α-hydroxypregnenolone dissolved in DMSO, contributing 2.5% v/v to the final assay mix, and phosphate buffer to give a total substrate concentration of 0.05 µM (=Km) per assay and subsequent incubation at 34°C for 6 minutes. Each assay was terminated by addition of 5 mL of chloroform:methanol (2:1). Carrier steroids representing substrates and produces (17α-hydroxypregnenolone, dehydroepiandrosterone, and androst-5-ene-3β,17β-diol) and 0.8 mL of distilled, deionized water were also added at this time. The steroids were extracted by the method of Moore and Wilson (Methods in Enzymol., eds. O. Malley, B.W. and Hardman, J.G. 36, 1975, pp. 466-474). The organic phase containing the steroids was evaporated using nitrogen gas, the residues dissolved in 18% tetrahydrofuran (v/v) in hexane, and the steroids were separated by HPLC on a Si60 (5 µm) column (250 x 4 mm) using a gradient of 18-22% tetrahydrofuran (v/v) in hexane. Radioactivity in the steroid peaks was measured using a Radiomatic® Model ES or Model A515 Flo-One® detector.
The enzyme activity for each assay was calculated from the percent conversion of substrate to products, and the results were expressed as percent inhibition of control. The following results were obtained, wherein the values indicated are the mean of duplicate determinations: Table 1: […]

PC-82 Human Tumor = experiment: PC-82 human tumor growth in nude mice; format: in vivo, male nude mice; conditions: MDL 103432 and MDL 105831 50 mg/kg B.I.D., MDL 15910 15 mg/kg B.I.D., per os; for Tumor Growth in PC-82 Human Tumor in Male Nude Mice, Day 7 / Tumor Growth in PC-82 Human Tumor in Male Nude Mice, Day 15 / Tumor Growth in PC-82 Human Tumor in Male Nude Mice, Day 21 / Tumor Growth in PC-82 Human Tumor in Male Nude Mice, Day 28 / Tumor Growth in PC-82 Human Tumor in Male Nude Mice, Day 35 / Tumor Growth in PC-82 Human Tumor in Male Nude Mice, Day -4: corrected group mean; for Tumor Growth in PC-82 Human Tumor in Male Nude Mice, Day -4: Day -4 (before treatment); for Δv/Δt (day 35-day 7): average tumor growth over 28 days from corrected group means
Excerpt: As described in van Steenbrugge, G.J. et al., J. Urol 131: 812-817 (1984) van Steenbrugge G.J. et al., The Prostate 11: 195-210 (1987) and Redding, T.W. et al., Cancer Research 52, 2538-2544 (1992), male nude mice (Hsd:athymic, Nude-nu) were obtained from Harlan Sprague Dawley. Mice were housed in sterilized micro-isolators and fed autoclaved ABLE® rodent chow (Purina Mills Inc., St. Louis, MO) and deionized water, adlibitum. Tumor-donating mice were first anesthetized using sodium pentobarbital and then sacrificed by cervical dislocation. The tumor was subsequently excised and placed in a petri dish containing ice-cold Hanks balanced salt solution. Tumors were cut into 2-3 mm cubes for implantation. Recipient animals were first anesthetized with 50 mg/kg pentobarbital, then implanted, by use of a trocar, with tumor fragments (one per mouse) in the dorsal area. Animals were separated into two control groups, one with vehicle alone and the other castrated, and the treatment groups, where n is the number of animals in each group.
Animals were selected for treatment groups based on tumor size. Each test compound was prepared as a solution or suspension in a lecithin vehicle (L-α-phosphatidylcholine type XV-E) containing methylparaben and propylparaben at a dose volume of 10 cc/kg. Animals were treated for 42 days by oral gavage (per os) seven days per week. Twenty-four hours after the last treatment the animals were euthenized by CO2 and tumors were removed and weighed. During the study period, mice were weighed and palpated weekly for tumors. In Table 5, average tumor growth is determined from the corrected group means over a 28 day period after treatment was started. […] The following animal data was deleted before computation of the corrected mean data in Table 5, Fig. 1: animals 4 and 44; Fig. 2: animals 10, 38 and 42; Fig. 3: Animal 39; Fig. 4: Animals 8, 9 and 49; Fig. 5: Animals 37 and 40 and 41.
Table 5 illustrates the average tumor growth in animals treated with 4-aza-17β-(cyclopropyloxy)-5α-androstan-3-one (MDL 103432; 50 mg/kg B.I.D.) 4-aza-17β-(cyclopropylamino)-androst-5(6)-en-3-one (MDL 105831; 50 mg/kg B.I.D.) and flutamide (MDL 15,910; 15 mg/kg B.I.D.), a known androgen receptor antagonist. The average growth rate of each tested compound relative to the vehicle and castrated controls is consistent with the in vivo inhibition of androgens.

`CC12CCC3C(CC[C@H]4NC(=O)CCC34C)C1CC[C@@H]2OC1CC1` (stereo partly drawn) [MDL 103,432, 17β-Cyclopropyloxy-4-aza-5α-androstan-3-one] was tested, and the inhibition at 0.1 µM ([1]; preincubation 0 min) was 23.4%, the inhibition at 0.1 µM ([1]; preincubation 40 min) was 20.2% and the inhibition at 1 µM ([1]; preincubation 0 min) was 33%. The inhibition at 1 µM ([1]; preincubation 40 min) was 54.2%, the inhibition at 10 µM ([1]; preincubation 0 min) was 68.3% and the inhibition at 10 µM ([1]; preincubation 40 min) was 80.2%. For the same compound, the “Tumor Growth in PC-82 Human Tumor in Male Nude Mice, Day 7” value (PC-82 Human Tumor) was 180.2 mm^3, the “Tumor Growth in PC-82 Human Tumor in Male Nude Mice, Day 15” value (PC-82 Human Tumor) was 220,2 mm^3 and the “Tumor Growth in PC-82 Human Tumor in Male Nude Mice, Day 21” value (PC-82 Human Tumor) was 288.2 mm^3. For the same compound, the “Tumor Growth in PC-82 Human Tumor in Male Nude Mice, Day 28” value (PC-82 Human Tumor) was 385.9 mm^3, the “Tumor Growth in PC-82 Human Tumor in Male Nude Mice, Day 35” value (PC-82 Human Tumor) was 427.4 mm^3 and the “Tumor Growth in PC-82 Human Tumor in Male Nude Mice, Day -4” value (PC-82 Human Tumor) was 122.2 mm^3. The “Δv/Δt (day 35-day 7)” value (PC-82 Human Tumor) was 8.83 mm^3/day.

`C[C@]12CC[C@H]3[C@@H](CC=C4NC(=O)CC[C@@]43C)[C@@H]1CC[C@@H]2NC1CC1` [MDL 105,831, 17β-Cyclopropylamino-4-aza-androst-5-en-3-one] was tested, and the inhibition at 0.1 µM ([1]; preincubation 0 min) was 11.4%, the inhibition at 0.1 µM ([1]; preincubation 40 min) was 24.6% and the inhibition at 1 µM ([1]; preincubation 0 min) was 26%. It also gave an inhibition at 1 µM ([1]; preincubation 40 min) of 53.8%, an inhibition at 10 µM ([1]; preincubation 0 min) of 69.6% and an inhibition at 10 µM ([1]; preincubation 40 min) of 100%. The “Tumor Growth in PC-82 Human Tumor in Male Nude Mice, Day 7” value (PC-82 Human Tumor) was 188.3 mm^3, the “Tumor Growth in PC-82 Human Tumor in Male Nude Mice, Day 15” value (PC-82 Human Tumor) was 254.3 mm^3 and the “Tumor Growth in PC-82 Human Tumor in Male Nude Mice, Day 21” value (PC-82 Human Tumor) was 304.3 mm^3. The “Tumor Growth in PC-82 Human Tumor in Male Nude Mice, Day 28” value (PC-82 Human Tumor) was 530.7 mm^3, the “Tumor Growth in PC-82 Human Tumor in Male Nude Mice, Day 35” value (PC-82 Human Tumor) was 531.1 mm^3 and the “Tumor Growth in PC-82 Human Tumor in Male Nude Mice, Day -4” value (PC-82 Human Tumor) was 124.9 mm^3. For the same compound, the “Δv/Δt (day 35-day 7)” value (PC-82 Human Tumor) was 12.24 mm^3/day.
